Experimental data reported in ChEMBL document CHEMBL4507287, “Data for DCP probe MRL-650” (2021).

Assays:
[1] = tested on: Phosphatidylinositol 4,5-bisphosphate 3-kinase catalytic subunit alpha isoform (Homo sapiens), P42336 [E545K]; details: Compound concentration 1000.0 nM
[2] = target: Wee1-like protein kinase 2 (Homo sapiens) (UniProt P0C1S8); details: Compound concentration 1000.0 nM
[3] = target: Calcium/calmodulin-dependent protein kinase type II subunit beta (Homo sapiens) (UniProt Q13554); details: Compound concentration 1000.0 nM
[4] = target: Eukaryotic translation initiation factor 2-alpha kinase 1 (Homo sapiens) (UniProt Q9BQI3); details: Compound concentration 1000.0 nM
[5] = target: Cyclin-dependent kinase 13 (Homo sapiens) (UniProt Q14004); details: Compound concentration 1000.0 nM
Sequence of Cyclin-dependent kinase 13 (Homo sapiens) (Q14004 whole entry, looked up, canonical isoform): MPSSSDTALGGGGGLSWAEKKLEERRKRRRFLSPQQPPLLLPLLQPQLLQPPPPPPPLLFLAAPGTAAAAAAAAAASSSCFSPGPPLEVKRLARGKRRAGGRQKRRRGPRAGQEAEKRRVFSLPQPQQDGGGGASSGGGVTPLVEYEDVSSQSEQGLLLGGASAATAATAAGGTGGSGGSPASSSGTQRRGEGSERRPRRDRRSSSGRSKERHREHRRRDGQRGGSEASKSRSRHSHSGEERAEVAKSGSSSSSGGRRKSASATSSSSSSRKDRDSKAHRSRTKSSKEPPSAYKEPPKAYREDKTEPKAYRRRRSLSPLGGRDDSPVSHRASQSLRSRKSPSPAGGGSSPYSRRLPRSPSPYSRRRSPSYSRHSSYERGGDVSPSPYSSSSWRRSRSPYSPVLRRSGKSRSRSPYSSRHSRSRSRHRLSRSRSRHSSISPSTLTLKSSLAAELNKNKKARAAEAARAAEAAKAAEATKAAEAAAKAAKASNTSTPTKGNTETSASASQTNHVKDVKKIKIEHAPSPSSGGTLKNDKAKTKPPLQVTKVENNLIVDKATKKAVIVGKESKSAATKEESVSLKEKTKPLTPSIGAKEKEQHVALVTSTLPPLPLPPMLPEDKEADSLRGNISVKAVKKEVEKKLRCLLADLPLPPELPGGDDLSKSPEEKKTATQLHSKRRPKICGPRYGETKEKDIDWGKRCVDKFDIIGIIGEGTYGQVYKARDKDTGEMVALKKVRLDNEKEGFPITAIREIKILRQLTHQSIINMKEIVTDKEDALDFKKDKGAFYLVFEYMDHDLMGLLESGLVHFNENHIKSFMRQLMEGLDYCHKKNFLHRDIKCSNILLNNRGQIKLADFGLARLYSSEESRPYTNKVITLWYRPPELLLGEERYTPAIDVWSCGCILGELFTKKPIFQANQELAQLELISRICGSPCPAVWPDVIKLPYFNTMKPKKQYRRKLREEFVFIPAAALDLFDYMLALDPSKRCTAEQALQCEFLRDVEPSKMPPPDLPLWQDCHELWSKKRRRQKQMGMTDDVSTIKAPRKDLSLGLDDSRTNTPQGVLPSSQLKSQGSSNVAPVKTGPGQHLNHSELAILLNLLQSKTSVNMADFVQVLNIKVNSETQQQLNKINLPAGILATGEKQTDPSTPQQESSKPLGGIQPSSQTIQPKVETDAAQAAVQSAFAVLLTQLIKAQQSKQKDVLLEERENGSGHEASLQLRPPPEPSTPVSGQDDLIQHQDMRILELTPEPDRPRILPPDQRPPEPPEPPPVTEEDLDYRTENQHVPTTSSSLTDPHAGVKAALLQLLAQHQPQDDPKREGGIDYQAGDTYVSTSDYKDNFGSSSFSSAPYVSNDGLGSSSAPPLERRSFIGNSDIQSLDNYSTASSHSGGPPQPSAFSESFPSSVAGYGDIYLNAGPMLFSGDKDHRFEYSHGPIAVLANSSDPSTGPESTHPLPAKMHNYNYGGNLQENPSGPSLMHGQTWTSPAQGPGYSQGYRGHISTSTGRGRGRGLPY

[6] = tested on: Phosphatidylinositol 4,5-bisphosphate 3-kinase catalytic subunit alpha isoform (Homo sapiens), P42336 [Q546K]; details: Compound concentration 1000.0 nM
[7] = target: MAP kinase-interacting serine/threonine-protein kinase 2 (Homo sapiens) (UniProt Q9HBH9); details: Compound concentration 1000.0 nM
[8] = target: Serine/threonine-protein kinase 10 (Homo sapiens) (UniProt O94804); details: Compound concentration 1000.0 nM
[9] = target: Mitogen-activated protein kinase 14 (Homo sapiens) (UniProt Q16539); details: Compound concentration 1000.0 nM
[10] = tested on: Mast/stem cell growth factor receptor Kit (Homo sapiens), P10721 [A829P]; details: Compound concentration 1000.0 nM
[11] = target: Insulin-like growth factor 1 receptor (Homo sapiens) (UniProt P08069); details: Compound concentration 1000.0 nM
Sequence of Insulin-like growth factor 1 receptor (Homo sapiens) (P08069 31-736 limits assumed): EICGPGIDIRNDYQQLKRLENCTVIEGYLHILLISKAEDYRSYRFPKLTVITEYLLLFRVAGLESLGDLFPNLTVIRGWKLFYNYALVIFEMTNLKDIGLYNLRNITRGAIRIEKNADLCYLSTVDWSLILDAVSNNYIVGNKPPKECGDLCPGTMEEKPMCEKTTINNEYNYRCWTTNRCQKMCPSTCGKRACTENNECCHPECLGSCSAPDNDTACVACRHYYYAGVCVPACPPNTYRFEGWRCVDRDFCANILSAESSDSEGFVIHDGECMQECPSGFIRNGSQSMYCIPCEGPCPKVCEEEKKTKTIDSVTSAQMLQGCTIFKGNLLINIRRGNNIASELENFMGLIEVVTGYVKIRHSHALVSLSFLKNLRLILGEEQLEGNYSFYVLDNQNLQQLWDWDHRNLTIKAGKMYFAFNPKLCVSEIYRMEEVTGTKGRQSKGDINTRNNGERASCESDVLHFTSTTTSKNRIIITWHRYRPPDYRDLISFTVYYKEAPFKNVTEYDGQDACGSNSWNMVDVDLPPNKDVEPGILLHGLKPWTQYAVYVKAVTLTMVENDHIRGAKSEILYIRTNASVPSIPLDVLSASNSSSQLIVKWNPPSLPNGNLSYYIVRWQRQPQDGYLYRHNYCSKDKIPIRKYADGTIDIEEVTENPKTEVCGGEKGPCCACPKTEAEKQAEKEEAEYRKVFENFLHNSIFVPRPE
Sequence of Insulin-like growth factor 1 receptor (Homo sapiens) (P08069 741-1367 limits assumed): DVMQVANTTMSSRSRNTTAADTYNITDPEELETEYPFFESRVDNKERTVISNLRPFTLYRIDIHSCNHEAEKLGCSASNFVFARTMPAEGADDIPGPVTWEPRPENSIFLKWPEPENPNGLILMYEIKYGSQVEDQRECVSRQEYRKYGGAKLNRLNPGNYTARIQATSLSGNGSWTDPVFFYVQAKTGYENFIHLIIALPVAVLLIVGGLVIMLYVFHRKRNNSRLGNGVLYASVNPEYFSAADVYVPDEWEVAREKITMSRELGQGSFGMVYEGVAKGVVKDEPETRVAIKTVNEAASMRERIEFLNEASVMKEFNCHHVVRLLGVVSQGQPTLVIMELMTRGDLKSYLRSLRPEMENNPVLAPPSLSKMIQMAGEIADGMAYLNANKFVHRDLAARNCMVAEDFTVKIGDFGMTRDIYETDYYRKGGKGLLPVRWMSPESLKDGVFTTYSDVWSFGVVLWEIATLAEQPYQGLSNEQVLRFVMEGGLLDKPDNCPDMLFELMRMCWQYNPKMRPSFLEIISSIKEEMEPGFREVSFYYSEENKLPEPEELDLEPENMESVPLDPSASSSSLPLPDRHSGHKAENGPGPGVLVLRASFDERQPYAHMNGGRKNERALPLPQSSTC

[12] = target: Homeodomain-interacting protein kinase 2 (Homo sapiens) (UniProt Q9H2X6); details: Compound concentration 1000.0 nM
[13] = target: Tyrosine-protein kinase JAK1 (Homo sapiens) (UniProt P23458); details: Compound concentration 1000.0 nM
[14] = target: Serine/threonine-protein kinase Nek1 (Homo sapiens) (UniProt Q96PY6); details: Compound concentration 1000.0 nM
[15] = target: Mu-type opioid receptor (Homo sapiens) (UniProt P35372); details: Compound concentration 10.0 uM
[16] = target: Death-associated protein kinase 1 (Homo sapiens) (UniProt P53355); details: Compound concentration 1000.0 nM
[17] = target: Mitogen-activated protein kinase kinase kinase 11 (Homo sapiens) (UniProt Q16584); details: Compound concentration 1000.0 nM
[18] = target: Cyclin-dependent kinase 16 (Homo sapiens) (UniProt Q00536); details: Compound concentration 1000.0 nM
[19] = target: Mitogen-activated protein kinase kinase kinase 20 (Homo sapiens) (UniProt Q9NYL2); details: Compound concentration 1000.0 nM
[20] = target: Tyrosine-protein kinase HCK (Homo sapiens) (UniProt P08631); details: Compound concentration 1000.0 nM
[21] = tested on: Tyrosine-protein kinase ABL1 (Homo sapiens), P00519 [M351T]; details: Compound concentration 1000.0 nM
[22] = target: Serine/threonine-protein kinase ULK3 (Homo sapiens) (UniProt Q6PHR2); details: Compound concentration 1000.0 nM
[23] = tested on: Tyrosine-protein kinase ABL1 (Homo sapiens), P00519 [H396P]; details: Compound concentration 1000.0 nM
[24] = target: Ephrin type-A receptor 5 (Homo sapiens) (UniProt P54756); details: Compound concentration 1000.0 nM
Sequence of Ephrin type-A receptor 5 (Homo sapiens) (P54756 whole entry): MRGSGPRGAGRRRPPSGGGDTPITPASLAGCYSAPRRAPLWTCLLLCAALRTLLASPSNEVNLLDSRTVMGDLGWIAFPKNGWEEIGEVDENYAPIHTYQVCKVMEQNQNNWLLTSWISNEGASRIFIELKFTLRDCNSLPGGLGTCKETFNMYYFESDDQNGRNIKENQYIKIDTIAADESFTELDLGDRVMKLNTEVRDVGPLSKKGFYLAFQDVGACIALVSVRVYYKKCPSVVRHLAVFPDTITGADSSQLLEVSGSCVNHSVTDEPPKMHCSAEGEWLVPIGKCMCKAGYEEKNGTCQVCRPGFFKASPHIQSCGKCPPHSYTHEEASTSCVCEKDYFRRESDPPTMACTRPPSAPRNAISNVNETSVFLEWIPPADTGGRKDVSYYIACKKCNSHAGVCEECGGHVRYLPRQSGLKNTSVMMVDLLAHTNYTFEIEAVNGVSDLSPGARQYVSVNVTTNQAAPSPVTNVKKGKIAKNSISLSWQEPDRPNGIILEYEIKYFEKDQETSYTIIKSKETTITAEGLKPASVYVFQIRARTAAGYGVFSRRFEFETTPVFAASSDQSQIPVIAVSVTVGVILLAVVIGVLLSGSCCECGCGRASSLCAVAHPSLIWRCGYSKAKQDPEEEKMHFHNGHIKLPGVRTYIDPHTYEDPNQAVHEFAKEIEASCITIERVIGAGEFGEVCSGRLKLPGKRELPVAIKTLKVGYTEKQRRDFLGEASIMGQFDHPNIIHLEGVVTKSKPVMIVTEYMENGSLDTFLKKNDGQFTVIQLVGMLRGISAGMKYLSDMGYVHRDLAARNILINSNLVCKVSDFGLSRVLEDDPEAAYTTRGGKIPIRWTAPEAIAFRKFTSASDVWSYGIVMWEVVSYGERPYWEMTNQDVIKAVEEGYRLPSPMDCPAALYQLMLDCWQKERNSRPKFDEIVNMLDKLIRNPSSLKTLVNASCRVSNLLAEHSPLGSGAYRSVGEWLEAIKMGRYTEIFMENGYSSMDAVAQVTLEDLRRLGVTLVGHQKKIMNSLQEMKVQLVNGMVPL

[25] = target: Myosin-IIIb (Homo sapiens) (UniProt Q8WXR4); details: Compound concentration 1000.0 nM
[26] = tested on: Epidermal growth factor receptor (Homo sapiens), P00533 [UNDEFINED MUTATION]; details: Compound concentration 1000.0 nM
[27] = target: Megakaryocyte-associated tyrosine-protein kinase (Homo sapiens) (UniProt P42679); details: Compound concentration 1000.0 nM
Sequence of Megakaryocyte-associated tyrosine-protein kinase (Homo sapiens) (P42679 whole entry): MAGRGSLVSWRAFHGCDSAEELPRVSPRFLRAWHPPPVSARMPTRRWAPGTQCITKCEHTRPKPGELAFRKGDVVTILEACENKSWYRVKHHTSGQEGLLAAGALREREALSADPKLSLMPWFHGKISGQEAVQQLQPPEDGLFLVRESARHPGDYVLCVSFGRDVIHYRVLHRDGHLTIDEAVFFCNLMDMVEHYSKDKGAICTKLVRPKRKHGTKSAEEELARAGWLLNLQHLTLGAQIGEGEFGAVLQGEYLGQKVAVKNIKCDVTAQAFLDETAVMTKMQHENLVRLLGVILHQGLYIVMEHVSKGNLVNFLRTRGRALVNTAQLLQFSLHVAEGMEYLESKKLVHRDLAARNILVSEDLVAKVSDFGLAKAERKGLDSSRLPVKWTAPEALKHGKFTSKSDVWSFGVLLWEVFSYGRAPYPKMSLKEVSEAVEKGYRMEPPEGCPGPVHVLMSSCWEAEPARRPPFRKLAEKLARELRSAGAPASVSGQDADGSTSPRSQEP

[28] = target: Kappa-type opioid receptor (Homo sapiens) (UniProt P41145); details: Compound concentration 10.0 uM
[29] = target: Rho-associated protein kinase 1 (Homo sapiens) (UniProt Q13464); details: Compound concentration 1000.0 nM
[30] = tested on: ALK tyrosine kinase receptor (Homo sapiens), Q9UM73 [L1196M]; details: Compound concentration 1000.0 nM
[31] = target: cAMP-dependent protein kinase catalytic subunit alpha (Homo sapiens) (UniProt P17612); details: Compound concentration 1000.0 nM
[32] = target: Inhibitor of nuclear factor kappa-B kinase subunit alpha (Homo sapiens) (UniProt O15111); details: Compound concentration 1000.0 nM
[33] = target: Muscarinic acetylcholine receptor M5 (Homo sapiens) (UniProt P08912); details: Compound concentration 10.0 uM
[34] = target: Casein kinase I isoform gamma-1 (Homo sapiens) (UniProt Q9HCP0); details: Compound concentration 1000.0 nM
[35] = target: Cyclin-dependent kinase 19 (Homo sapiens) (UniProt Q9BWU1); details: Compound concentration 1000.0 nM
[36] = target: Calcium/calmodulin-dependent protein kinase type 1G (Homo sapiens) (UniProt Q96NX5); details: Compound concentration 1000.0 nM
[37] = target: Phosphatidylinositol 4,5-bisphosphate 3-kinase catalytic subunit alpha isoform (Homo sapiens) (UniProt P42336); details: Compound concentration 1000.0 nM
[38] = target: Fibroblast growth factor receptor 1 (Homo sapiens) (UniProt P11362); details: Compound concentration 1000.0 nM
[39] = target: Tyrosine-protein kinase CSK (Homo sapiens) (UniProt P41240); details: Compound concentration 1000.0 nM
[40] = target: Interferon-induced, double-stranded RNA-activated protein kinase (Homo sapiens) (UniProt P19525); details: Compound concentration 1000.0 nM
Sequence of Interferon-induced, double-stranded RNA-activated protein kinase (Homo sapiens) (P19525 whole entry): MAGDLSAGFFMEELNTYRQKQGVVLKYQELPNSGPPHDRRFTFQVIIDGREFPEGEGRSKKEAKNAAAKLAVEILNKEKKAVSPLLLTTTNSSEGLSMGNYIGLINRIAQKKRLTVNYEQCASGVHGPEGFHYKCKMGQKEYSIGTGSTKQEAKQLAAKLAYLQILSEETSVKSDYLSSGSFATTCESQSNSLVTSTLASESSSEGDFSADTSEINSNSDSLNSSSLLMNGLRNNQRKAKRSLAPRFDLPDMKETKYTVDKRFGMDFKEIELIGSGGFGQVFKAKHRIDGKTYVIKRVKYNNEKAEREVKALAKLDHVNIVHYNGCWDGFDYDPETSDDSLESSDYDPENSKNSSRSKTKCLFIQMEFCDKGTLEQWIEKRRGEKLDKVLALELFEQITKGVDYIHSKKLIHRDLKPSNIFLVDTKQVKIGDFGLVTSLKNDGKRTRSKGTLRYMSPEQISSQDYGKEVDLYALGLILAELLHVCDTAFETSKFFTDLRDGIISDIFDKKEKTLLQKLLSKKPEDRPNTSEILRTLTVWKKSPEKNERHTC

[41] = target: Sodium-dependent dopamine transporter (Homo sapiens, UniProt Q01959); details: Compound concentration 10.0 uM
[42] = target: Mitogen-activated protein kinase kinase kinase kinase 1 (Homo sapiens) (UniProt Q92918); details: Compound concentration 1000.0 nM
[43] = target: Tyrosine-protein kinase ABL1 (Homo sapiens) (UniProt P00519); details: Compound concentration 1000.0 nM
[44] = target: Cyclin-G-associated kinase (Homo sapiens) (UniProt O14976); details: Compound concentration 1000.0 nM
[45] = target: Tyrosine-protein kinase Yes (Homo sapiens) (UniProt P07947); details: Compound concentration 1000.0 nM

CC(=O)c1c(NS(C)(=O)=O)c2cc(-c3ccc(Cl)cc3)c(-c3ccc(Cl)cc3Cl)nc2n(C)c1=O [MRL-CB1-NC]
residual activity [1]: 91%
residual activity [2]: 100%
residual activity [3]: 100%
residual activity [4]: 83%
residual activity [5]: 96%
residual activity [6]: 86%
residual activity [7]: 75%
residual activity [8]: 100%
residual activity [9]: 100%
residual activity [10]: 96%
residual activity [11]: 100%
residual activity [12]: 87%
residual activity [13]: 93%
residual activity [14]: 100%
inhibition [15]: 34.4%
residual activity [16]: 80%
residual activity [17]: 100%
residual activity [18]: 76%
residual activity [19]: 92%
residual activity [20]: 100%
residual activity [21]: 87%
residual activity [22]: 80%
residual activity [23]: 100%
residual activity [24]: 100%
residual activity [25]: 99%
residual activity [26]: 91%
residual activity [27]: 83%
inhibition [28]: 2.99%
residual activity [29]: 85%
residual activity [30]: 97%
residual activity [31]: 100%
residual activity [32]: 100%
inhibition [33]: -4.92%
residual activity [34]: 92%
residual activity [35]: 100%
residual activity [36]: 100%
residual activity [37]: 100%
residual activity [38]: 97%
residual activity [39]: 100%
residual activity [40]: 100%
inhibition [41]: 67.1%
residual activity [42]: 100%
residual activity [43]: 92%
residual activity [44]: 100%
residual activity [45]: 96%

CC(=O)Nc1c(C(C)=O)c(=O)n(C)c2nc(-c3ccc(Cl)cc3Cl)c(-c3ccc(Cl)cc3)cc12 [NAPHTHYRIDINONE]
residual activity [1]: 79%
residual activity [2]: 100%
residual activity [3]: 100%
residual activity [4]: 68%
residual activity [5]: 100%
residual activity [6]: 100%
residual activity [7]: 100%
residual activity [8]: 100%
residual activity [9]: 100%
residual activity [10]: 100%
residual activity [11]: 100%
residual activity [12]: 100%
residual activity [13]: 100%
residual activity [14]: 100%
inhibition [15]: 8.16%
residual activity [16]: 100%
residual activity [17]: 100%
residual activity [18]: 100%
residual activity [19]: 100%
residual activity [20]: 100%
residual activity [21]: 100%
residual activity [22]: 75%
residual activity [23]: 100%
residual activity [24]: 100%
residual activity [25]: 100%
residual activity [26]: 100%
residual activity [27]: 100%
inhibition [28]: 7.96%
residual activity [29]: 100%
residual activity [30]: 100%
residual activity [31]: 100%
residual activity [32]: 100%
inhibition [33]: -4.54%
residual activity [34]: 100%
residual activity [35]: 100%
residual activity [36]: 100%
residual activity [37]: 100%
residual activity [38]: 100%
residual activity [39]: 100%
residual activity [40]: 100%
inhibition [41]: 36.4%
residual activity [42]: 91%
residual activity [43]: 81%
residual activity [44]: 100%
residual activity [45]: 100%
